Results: patent US20260315376A1, “NOVEL OPHTHALMIC COMPOSITION” (Cipla Limited, priority 2022, published 2026)
Converted amounts (≈) assume the structure as drawn.

Assays:
[1] = tested on: Isolates from Bacterial Keratitis and/or Conjunctivitis; assay: In vitro proof of concept study, overall antibacterial activity; assay type: cell-based
Procedure: (§1) Example 3: In Vitro “Proof of Concept” Study of Effects of Plazomicin on Isolates from Bacterial Keratitis and/or Conjunctivitis
(§2) Isolates from patients diagnosed clinically with microbial keratitis were tested for antibacterial susceptibility against plazomicin agents using reference broth microdilution methods.
(§3) 21 grams of Muller Hinton broth powder was suspended in 1000 ml of distilled water.
(§4) Pure cultures of bacterial isolates were prepared in Blood Agar/Mueller Hinton agar from cryovials.
(§5) A standardized inoculum of 0.5 McFarland was prepared using direct colony suspension method.
(§6) 3-5 well isolated colonies were taken from 18-24 hour culture plate and suspended into 2 ml of sterile saline/Muller Hinton broth.
(§7) A homogenous suspension was made, and the turbidity was adjusted to 0.5McFarland turbidity standard (approximately 1*10^6-8 CFU/ml) using the Densitometer.
(§8) A 0.1 ml of standardized bacterial inoculum was added to 9.9 ml of sterile saline solution. (i.e., a 1:100 dilution).
(§9) A 96 well round bottomed plate was used for the Microbroth dilution assay. […]
(§10) The plate was incubated for 18-24 hours to read the Minimum Inhibitory Concentration (MIC).
(§11) Gram positive isolates evaluated: • 1. […]

conjunctival isolates = assay: Broth microdilution antibacterial susceptibility (MIC), conjunctival isolates; assay type: cell-based; settings: ≤4 mcg/mL
Procedure: as §1, §2, §3, §4, §5, §6, §7, §8, §9, §10, §11

MRSA = settings: vs amikacin; cited from earlier work
S. epidermidis = assay: Broth microdilution antibacterial susceptibility (MIC), keratitis/conjunctivitis isolates; assay type: cell-based, Staphylococcus epidermidis; settings: at ≤2 mcg/mL
Procedure: as §1, §2, §3, §4, §5, §6, §7, §8, §9, §10, §11

MSSA = settings: vs amikacin; cited from earlier work
[2] = tested on: Gram-negative enteric bacteria; settings: cited from earlier work
[3] = tested on: species of Staphylococcus; settings: cited from earlier work
S. hominis = assay: Broth microdilution antibacterial susceptibility (MIC), keratitis/conjunctivitis isolates; assay type: cell-based, Staphylococcus hominis; settings: at ≤2 mcg/mL
Procedure: as §1, §2, §3, §4, §5, §6, §7, §8, §9, §10, §11

Moraxella lacunata = assay: as above; assay type: cell-based; settings: at ≤2 mcg/mL
Procedure: as §1, §2, §3, §4, §5, §6, §7, §8
(§12) A 96 well round bottomed plate was used for the Microbroth dilution assay.
(§13) A 100 μl of Muller Hinton broth containing drug concentrations from 0.125 mcg/ml to 64 mcg/ml (0.125 mcg/ml, 0.25 mcg/ml, 0.5 mcg/ml, 1 mcg/ml, 2 mcg/ml, 4 mcg/ml, 8 mcg/ml, 16 mcg/ml, 32 mcg/ml, and 64 mcg/ml) were added to the 96 well.
(§14) To this a 100 μl of the diluted bacterial inoculum (1:100) was added to each well with varying concentration of drugs. Each well contained 5*10^5 CFU/ml bacteria.
(§15) Growth control (Respective organism+Muller Hinton broth) and sterility control (Sterile Muller Hinton broth) were added to the 96 well plate.
as §10
(§16) • 1. Pseudomonas • 2. Klebsiella pneumoniae • 3. Klebsiella pneumoniae (ESBLs) • 4. Moraxella lacunata • 5. Haemophilus influenzae • 6. Proteus • 7. Serratia • 8. Enterobacter e.

Enterobacter spp. = assay: as above; assay type: cell-based; settings: at ≤2 mcg/mL
Procedure: as §1, §2, §3, §4, §5, §6, §7, §8, §12, §13, §14, §15, §10, §16

Pseudomonas spp. = assay: as above; assay type: cell-based
Procedure: as §1, §2, §3, §4, §5, §6, §7, §8, §12, §13, §14, §15, §10, §16

[4] = tested on: Enterobacterales isolates; assay: as above; assay type: cell-based
Procedure: as §1, §2, §3, §4, §5, §6, §7, §8, §12, §13, §14, §15, §10, §16

[5] = tested on: Methicillin resistant Staphylococcus aureus (MRSA); assay: as above; assay type: cell-based
Procedure: as §1, §2, §3, §4, §5, §6, §7, §8, §12, §13, §14, §15, §10
(§17) Gram positive isolates evaluated: • 1. Methicillin susceptible Staphylococcus aureus (MSSA) • 2. Methicillin resistant Staphylococcus aureus (MRSA) • 3. Staphylococcus epidermidis • 4. Staphylococcus hominis • 5. Staphylococcus haemolyticus • 6. Streptococcus pneumoniae • 7. Corynebacterium

Corynebacterium = assay: as above; assay type: cell-based; settings: at ≤2 mcg/mL
Procedure: as §1, §2, §3, §4, §5, §6, §7, §8, §12, §13, §14, §15, §10, §17

[6] = tested on: Methicillin susceptible Staphylococcus aureus (MSSA); assay: as above; assay type: cell-based
Procedure: as §1, §2, §3, §4, §5, §6, §7, §8, §12, §13, §14, §15, §10, §17

Staphylococcus spp. = assay: as above; assay type: cell-based
Procedure: as §1, §2, §3, §4, §5, §6, §7, §8, §12, §13, §14, §15, §10, §17

S. haemolyticus = assay: as above; assay type: cell-based, Staphylococcus haemolyticus; settings: at ≤2 mcg/mL
Procedure: as §1, §2, §3, §4, §5, §6, §7, §8, §9, §10, §11

[7] = Staphylococcus aureus, 18-24 hours incubation

In the case of CN[C@@H]1[C@@H](O)[C@@H](O[C@@H]2[C@@H](O)[C@H](O[C@H]3OC(CNCCO)=CC[C@H]3N)[C@@H](N)C[C@H]2NC(=O)[C@@H](O)CCN)OC[C@]1(C)O [Plazomicin], the “antibacterial activity (conclusion)” value [1] is listed as “very good antibacterial activity”, the “susceptibility of conjunctival isolates” value (conjunctival isolates) is listed as 100% and the “activity compared with amikacin” value (MRSA) is listed as “greater activity than amikacin”. For the same compound, the “activity (% of isolates)” value (S. epidermidis) was 100%, the “activity compared with amikacin” value (MSSA) was “greater activity than amikacin” and the “in vitro activity compared with amikacin, gentamicin and tobramycin” value [2] was “more potent in vitro activity than amikacin, gentamicin and tobramycin”. The activity [3] was “potent activity”, the “activity (% of isolates)” value (S. hominis) was 100% and the “activity (% of isolates)” value (Moraxella lacunata) was 100%. For the same compound, the “activity (% of isolates)” value (Enterobacter spp.) was 100%, the “showed activity for % of isolates” value (Pseudomonas spp.) was 50% and the MIC50 (Pseudomonas spp.; 18-24 hours incubation) was 4 µg/mL (≈ 6.75 µM). It also gave an MIC90 (Pseudomonas spp.; 18-24 hours incubation) of 16 µg/mL (≈ 27 µM), an isolates inhibited ([4]; at ≤2 mcg/mL) of 61.5% and an isolates inhibited ([4]; at ≤4 mcg/mL) of 11.5%. For the same compound, the susceptible isolates [5] was 60%, the MIC50 [5, 7] was 2 µg/mL (≈ 3.37 µM) and the MIC90 [5, 7] was 8 µg/mL (≈ 13.5 µM). The “activity (% of isolates)” value (Corynebacterium) was 100%, the susceptible isolates [6] was 67.3% and the MIC50 [6, 7] was 2 µg/mL (≈ 3.37 µM). For the same compound, the MIC90 [6, 7] was 8 µg/mL (≈ 13.5 µM), the isolates inhibited (Staphylococcus spp.; at ≤2 mcg/mL) was 46% and the isolates inhibited (Staphylococcus spp.; at ≤4 mcg/mL) was 73.5%. The isolates inhibited (Staphylococcus spp.; at ≤8 mcg/mL) was 90.10% and the “activity (% of isolates)” value (S. haemolyticus) was 100%.
